Results on eight compounds are retold here after patent US4112073A, “Medicinal composition comprising adrenal cortical hormone and thyroid stimulating hormone releasing hormone” (Takeda Chemical Industries, Ltd., priority 1975, dated 1978).

Entries after “also recorded” stand apart in the source; their conditions may differ.

Series [1] can be described thus: Relative clinical effect of ACH (dexamethasone equivalent). As to conditions: for Equivalent (dexamethasone equivalent): dexamethasone taken as unity. From the text:
The relative amounts of ACH and TSH-releasing hormones may be determined according to the particular dosage form, the disease to be treated and other factors. Generally speaking, the ratio is about 1 (dexamethasone equivalent): 0.05 to 5, advantageously 0.05 to 2, and especially 0.1 to 1. The preferred ratio in each dosage form is; in the case of injections, about 1 (dexamethasone equivalent): 0.05 to 1, advantageously 0.1 to 1; in the case of oral preparations, about 1 (dexamethasone equivalent): 1 to 5, advantageously 1 to 2; and in the case of topical preparations, infusions and implants, about 1 (dexamethasone equivalent): 0.5 to 5, advantageously 0.5 to 2. The `dexamethasone equivalent` is an index number representing the relative clinical effect of any ACH with the effect of dexamethasone being taken as unity.

The conditions of series [2]: relative clinical effect of ACH; cited from earlier work.
The test system of series [3] is chronic moist dermatitis (in dogs). The conditions noted are these: oral tablets; Akitaken, 25 kg.
Experimental: Diagnosis: Chronic moist dermatitis
Therefore, on the next day one tablet containing 0.5 mg of dexamethasone and 1 mg of TRH tartrate was orally administered. […] As an adjunct to the medication, the dog was placed on a controlled regimen.
In another series the test system is eczema (in dogs). Description: Treatment of eczema in dogs with ointment (Example 2). As to conditions: hydrophilic ointment 0.1%, externally applied.

For `C[C@H]1C[C@H]2[C@@H]3CCC4=CC(=O)C=C[C@]4(C)[C@@]3(F)[C@@H](O)C[C@]2(C)[C@@]1(O)C(=O)CO` [Betamethasone, 9α-fluoro-16α-methylprednisolone], in series [1], the “clinical efficacy / potency compared with dexamethasone” value is on record as “as potent as dexamethasone” and the “Equivalent (dexamethasone equivalent)” value is 1. The Clinical effect in series [2] is given as 30.

For the compound `C[C@@H]1C[C@H]2[C@@H]3CCC4=CC(=O)C=C[C@]4(C)[C@@]3(F)[C@@H](O)C[C@]2(C)[C@@]1(O)C(=O)CO` [Dexamethasone, 9α-fluoro-16α-methylprednisolone], in series [1], the “Equivalent (dexamethasone equivalent)” value is 1. Moreover, the “therapeutic response” value in series [3] is “failed to elicit a response”. In addition, the Clinical effect in series [2] is 30.0.

As for `C[C@]12CCC(=O)C=C1CC[C@@H]1[C@@H]2[C@@H](O)C[C@@]2(C)[C@H]1CC[C@]2(O)C(=O)CO` [Hydrocortisone], the “Equivalent (dexamethasone equivalent)” value in series [1] was 30. The Clinical effect in series [2] is 1.0.

`C[C@H]1C[C@@H]2[C@H]([C@@H](O)C[C@@]3(C)[C@H]2CC[C@]3(O)C(=O)CO)[C@@]2(C)C=CC(=O)C=C12` [Methylprednisolone, 6α-methylprednisolone]: the “Equivalent (dexamethasone equivalent)” value in series [1] is given as 6. The Clinical effect in series [2] is reported as 5.0.

`C[C@@H]1C[C@H]2[C@@H]3C[C@H](F)C4=CC(=O)C=C[C@]4(C)[C@H]3[C@@H](O)C[C@]2(C)[C@@]1(O)C(=O)CO` [Paramethasone, 6α-fluoro-16α-methylprednisolone]: in series [1], the “Equivalent (dexamethasone equivalent)” value amounted to 3. For the same compound, the Clinical effect in series [2] is 10.0.

`C[C@]12C=CC(=O)C=C1CC[C@@H]1[C@@H]2[C@@H](O)C[C@@]2(C)[C@H]1CC[C@]2(O)C(=O)CO` [Prednisolone, prednisolone]: in series [1], the “Equivalent (dexamethasone equivalent)” value is 7.5. Besides, the Clinical effect in series [2] is recorded as 4.0.

For `C[C@]12C=CC(=O)C=C1CC[C@H]1[C@@H]3C[C@@H](O)[C@](O)(C(=O)CO)[C@@]3(C)C[C@H](O)[C@@]12F` [Triamcinolone, 9α-fluoro-16α-hydroxyprednisolone], in series [1], the “clinical efficacy / potency compared with dexamethasone” value is listed as “one-sixth” and the “Equivalent (dexamethasone equivalent)” value is reported as 6. Besides, the Clinical effect in series [2] is listed as 5.0.

Regarding `C[C@@H]1C[C@H]2[C@@H]3CCC4=CC(=O)C=C[C@]4(C)[C@@]3(F)[C@@H](O)C[C@]2(C)[C@@]1(O)C(=O)COP(=O)(O)O` [dexamethasone phosphate], the “therapeutic result” value with eczema (in dogs) (4 dogs with exudative eczema) was “a passing mitigation of inflammation or itchiness; also recorded: substantially no successful therapeutic result was obtained”. Also, in the series with eczema (in dogs) (dogs with exudative eczema), the adverse response result was “an increase in the amount of exudate”.
